Measured values reported in patent US20230265116A1, “DEGRADATION OF (EGFR) BY CONJUGATION OF EGFR INHIBITORS WITH E3 LIGASE LIGAND AND METHODS OF USE” (BEIGENE, LTD., priority 2020, published 2023).

Key:
[1] = tested on: EGFR Del19/T790M/C797S (H1975-clone #28); assay: EGFR degradation HTRF assay, H1975-clone #28 DTC cells; type: cell-based; settings: H1975 # 28 DTC cells; for DC50: EGFR degradation, IC50 (DC50) from curve fit, read-out: DC50(nM) H1975 # 28 DTC; for Dmax (%) H1975 # 28 DTC: maximum percentage of inhibition (degradation)
Procedure, shortened: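 H1975 clones stably overexpressing mutant EGFR, with endogenous EGFR knocked out by sgRNA and homozygosity confirmed by sequencing, were treated 16h at 37° C. with compounds in 0.2% DMSO (top final 10 uM, 5-fold, 8 doses). Lysates were read by HTRF (665/620 nm); DC50 and Dmax came from fitting % degradation versus DMSO control.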

[2] = molecular target: T1, EGFR L858R/T790M/C797S (BaF3-LTC cells) (Homo sapiens, UniProt P00533, C797S/L858R/T790M); assay: EGFR degradation HTRF assay, BaF3-LTC cells; type: cell-based; settings: BaF3-LTC cells; for DC50: EGFR degradation, IC50 (DC50) from curve fit, read-out: DC50(nM) BaF3-LTC; for Dmax: maximum percentage of inhibition (degradation), read-out: Dmax (%) BaF3-LTC
T1 construct: expressed in transfected cells; host or cells: BaF3
Procedure, shortened: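 Cells treated 16 h at 37 °C, 5% CO2 in medium with 0.2% DMSO; top final concentration 10 uM, 5-fold dilution, 8 doses. Lysates read by HTRF (665/620 nm); degradation % versus DMSO high control, DC50 from four-parameter fit, Dmax as maximal degradation.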

T1 sequence (P00533 25-1210 T790M/C797S/L858R): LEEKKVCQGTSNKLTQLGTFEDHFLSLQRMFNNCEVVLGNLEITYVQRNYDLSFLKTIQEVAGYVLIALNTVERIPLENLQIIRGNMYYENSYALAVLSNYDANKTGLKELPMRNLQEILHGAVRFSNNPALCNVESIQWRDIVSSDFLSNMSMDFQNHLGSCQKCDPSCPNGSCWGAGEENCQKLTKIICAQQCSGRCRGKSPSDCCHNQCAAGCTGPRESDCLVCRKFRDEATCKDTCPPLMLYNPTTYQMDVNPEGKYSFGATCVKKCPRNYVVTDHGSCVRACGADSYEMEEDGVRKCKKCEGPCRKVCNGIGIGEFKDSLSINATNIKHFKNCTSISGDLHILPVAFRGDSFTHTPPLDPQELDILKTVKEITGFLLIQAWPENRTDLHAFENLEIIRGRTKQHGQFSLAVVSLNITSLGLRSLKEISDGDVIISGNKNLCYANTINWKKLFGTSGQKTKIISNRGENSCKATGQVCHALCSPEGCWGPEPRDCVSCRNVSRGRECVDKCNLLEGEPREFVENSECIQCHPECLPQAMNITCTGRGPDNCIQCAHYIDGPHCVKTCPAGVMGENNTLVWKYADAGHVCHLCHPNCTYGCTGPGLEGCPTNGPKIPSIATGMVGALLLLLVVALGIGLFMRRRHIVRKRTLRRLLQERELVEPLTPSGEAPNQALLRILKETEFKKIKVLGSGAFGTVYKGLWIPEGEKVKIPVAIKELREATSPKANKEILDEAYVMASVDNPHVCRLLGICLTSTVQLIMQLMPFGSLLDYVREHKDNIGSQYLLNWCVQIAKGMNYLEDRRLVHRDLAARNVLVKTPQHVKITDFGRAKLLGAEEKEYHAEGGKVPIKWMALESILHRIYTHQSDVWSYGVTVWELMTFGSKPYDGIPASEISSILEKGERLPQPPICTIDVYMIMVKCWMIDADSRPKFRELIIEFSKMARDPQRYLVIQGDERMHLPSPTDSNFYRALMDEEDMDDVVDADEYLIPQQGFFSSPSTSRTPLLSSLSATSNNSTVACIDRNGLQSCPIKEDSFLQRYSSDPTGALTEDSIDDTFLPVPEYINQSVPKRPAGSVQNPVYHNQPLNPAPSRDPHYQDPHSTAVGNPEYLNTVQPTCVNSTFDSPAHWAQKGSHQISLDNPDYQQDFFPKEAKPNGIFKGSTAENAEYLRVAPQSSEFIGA

Structure (SMILES) | DC50 [1] | Dmax (%) H1975 # 28 DTC [1] | DC50 [2] | Dmax [2]
COc1cc(N2CCC3(CCN(C(=O)[C@@H]4CCN(c5cc(F)c([C@H]6CCC(=O)NC6=O)c(F)c5)C4)CC3)CC2)c(C)cc1Nc1ncc(Br)c(Nc2ccc3nccnc3c2P(C)(C)=O)n1 [Example 667, (R)-3-(4-((R)-3-(9-(4-((5-bromo-4-((5-(dimethylphosphoryl)quinoxalin-6-yl)amino)pyrimidin-2-yl)amino)-5-methoxy-2-methylphenyl)-3,9-diazaspiro[5.5]undecane-3-carbonyl)pyrrolidin-1-yl)-2,6-difluorophenyl)piperidine-2,6-dione] | 3.69 nM | 77.43% | 13.3 nM | 84%
CCOc1cc(N2CCC(N3CCN(CCc4cc(F)cc5c4oc(=O)n5C4CCC(=O)NC4=O)CC3)CC2)c(CC)cc1Nc1ncc(Br)c(Nc2ccc3nc(CC)ccc3c2P(C)(C)=O)n1 (stereo not shown) [Example 472, 3-(7-(2-(4-(1-(4-((5-bromo-4-((5-(dimethylphosphoryl)-2-ethylquinolin-6-yl)amino)pyrimidin-2-yl)amino)-5-ethoxy-2-ethylphenyl)piperidin-4-yl)piperazin-1-yl)ethyl)-5-fluoro-2-oxobenzo[d]oxazol-3(2H)-yl)piperidine-2,6-dione] | 0.945 nM | 80.01% | 19.6 nM | 86.9%
CCOc1cc(N2CCC(N3CCN(CCc4cccc5c4oc(=O)n5C4CCC(=O)NC4=O)CC3)CC2)c(CC)cc1Nc1ncc(Br)c(Nc2ccc3c(=O)n(CC)ncc3c2P(C)(C)=O)n1 (stereo not shown) [Example 644, 3-(7-(2-(4-(1-(4-((5-bromo-4-((5-(dimethylphosphoryl)-2-ethyl-1-oxo-1,2-dihydrophthalazin-6-yl)amino)pyrimidin-2-yl)amino)-5-ethoxy-2-ethylphenyl)piperidin-4-yl)piperazin-1-yl)ethyl)-2-oxobenzo[d]oxazol-3(2H)-yl)piperidine-2,6-dione] | 0.829 nM | 86.29% | 5.12 nM | 92.6%
CCOc1cc(N2CCC(N3CCN(CCc4cc(F)c([C@H]5CCC(=O)NC5=O)c(F)c4)CC3)CC2)c(CC)cc1Nc1ncc(Br)c(Nc2cc(F)c3ncc(C)cc3c2P(C)(C)=O)n1 [Example 672, (R)-3-(4-(2-(4-(1-(4-((5-bromo-4-((5-(dimethylphosphoryl)-8-fluoro-3-methylquinolin-6-yl)amino)pyrimidin-2-yl)amino)-5-ethoxy-2-ethylphenyl)piperidin-4-yl)piperazin-1-yl)ethyl)-2,6-difluorophenyl)piperidine-2,6-dione] | 0.723 nM | 87.05% | 6.6 nM | 86.9%
CCc1cc(Nc2ncc(Br)c(Nc3ccc4nc(C)sc4c3P(C)(C)=O)n2)c(OC)cc1N1CCC(N2CCN(CCc3cc(F)c(C4CCC(=O)NC4=O)c(F)c3)CC2)CC1 (stereo not shown) [Example 666, 3-(4-(2-(4-(1-(4-((5-bromo-4-((7-(dimethylphosphoryl)-2-methylbenzo[d]thiazol-6-yl)amino)pyrimidin-2-yl)amino)-2-ethyl-5-methoxyphenyl)piperidin-4-yl)piperazin-1-yl)ethyl)-2,6-difluorophenyl)piperidine-2,6-dione] | 2.4 nM | 86.11% | 11.1 nM | 93.2%
CCOc1cc(N2CCC(N3CCN(CCc4c(C)c(F)cc5c4oc(=O)n5C4CCC(=O)NC4=O)CC3)CC2)c(CC)cc1Nc1ncc(Br)c(Nc2cc(F)c3nc(CC)ccc3c2P(C)(C)=O)n1 (stereo not shown) [Example 593, 3-(7-(2-(4-(1-(4-((5-bromo-4-((5-(dimethylphosphoryl)-2-ethyl-8-fluoroquinolin-6-yl)amino)pyrimidin-2-yl)amino)-5-ethoxy-2-ethylphenyl)piperidin-4-yl)piperazin-1-yl)ethyl)-5-fluoro-6-methyl-2-oxobenzo[d]oxazol-3(2H)-yl)piperidine-2,6-dione] | 1.26 nM | 76.9% | 13.2 nM | 82.6%
CCOc1cc(N2CCC(N3CCN(CC4CCN(c5cccc6c5oc(=O)n6C5CCC(=O)NC5=O)CC4)CC3)CC2)c(CC)cc1Nc1ncc(Br)c(Nc2ccc3c(=O)n(CC)ncc3c2P(C)(C)=O)n1 (stereo not shown) [Example 582, 3-(7-(4-((4-(1-(4-((5-bromo-4-((5-(dimethylphosphoryl)-2-ethyl-1-oxo-1,2-dihydrophthalazin-6-yl)amino)pyrimidin-2-yl)amino)-5-ethoxy-2-ethylphenyl)piperidin-4-yl)piperazin-1-yl)methyl)piperidin-1-yl)-2-oxobenzo[d]oxazol-3(2H)-yl)piperidine-2,6-dione] | 1.06 nM | 79.64% | 8.54 nM | 93.1%
CCc1ccc2c(P(C)(C)=O)c(Nc3nc(Nc4cc(CC)c(N5CCC(C6CCN(CCc7cc(F)c([C@H]8CCC(=O)NC8=O)c(F)c7)CC6)CC5)cc4OC)ncc3Br)ccc2n1 [Example 745, (R)-3-(4-(2-(1′-(4-((5-bromo-4-((5-(dimethylphosphoryl)-2-ethylquinolin-6-yl)amino)pyrimidin-2-yl)amino)-2-ethyl-5-methoxyphenyl)-[4,4′-bipiperidin]-1-yl)ethyl)-2,6-difluorophenyl)piperidine-2,6-dione] | 2.25 nM | 75.21% | 40.3 nM | –
CCc1ccc2c(P(C)(C)=O)c(Nc3nc(Nc4cc(CC)c(N5CCC(N6CCN(C[C@H]7C[C@H](N(C)c8cc(F)c(C9CCC(=O)NC9=O)c(F)c8)C7)CC6)CC5)cc4OC)ncc3Br)ccc2n1 (stereo partly shown) [Example 691, 3-(4-(((1r,3r)-3-((4-(1-(4-((5-bromo-4-((5-(dimethylphosphoryl)-2-ethylquinolin-6-yl)amino)pyrimidin-2-yl)amino)-2-ethyl-5-methoxyphenyl)piperidin-4-yl)piperazin-1-yl)methyl)cyclobutyl)(methyl)amino)-2,6-difluorophenyl)piperidine-2,6-dione] | 3.3 nM | 71.66% | 24.6 nM | 93.4%
CCOc1cc(N2CCC(N3CCN(CCc4c(C)ccc5c4oc(=O)n5C4CCC(=O)NC4=O)CC3)CC2)c(CC)cc1Nc1ncc(Br)c(Nc2ccc3nc(CC)ccc3c2P(C)(C)=O)n1 (stereo not shown) [Example 634, 3-(7-(2-(4-(1-(4-((5-bromo-4-((5-(dimethylphosphoryl)-2-ethylquinolin-6-yl)amino)pyrimidin-2-yl)amino)-5-ethoxy-2-ethylphenyl)piperidin-4-yl)piperazin-1-yl)ethyl)-6-methyl-2-oxobenzo[d]oxazol-3(2H)-yl)piperidine-2,6-dione] | 0.985 nM | 81.71% | 4.47 nM | 88%
CCc1cc(Nc2ncc(Br)c(Nc3ccc4nc(C)ccc4c3P(C)(C)=O)n2)c(OC)cc1N1CCC(N2CCN(CC3CN(c4ccc5c(c4)oc(=O)n5C4CCC(=O)NC4=O)C3)CC2)CC1 (stereo not shown) [Example 537, 3-(6-(3-((4-(1-(4-((5-bromo-4-((5-(dimethylphosphoryl)-2-methylquinolin-6-yl)amino)pyrimidin-2-yl)amino)-2-ethyl-5-methoxyphenyl)piperidin-4-yl)piperazin-1-yl)methyl)azetidin-1-yl)-2-oxobenzo[d]oxazol-3(2H)-yl)piperidine-2,6-dione] | 0.223 nM | 65.01% | 0.934 nM | 94%
